Reference: patent US6825172B2, “3-descladinosyl-6-O-carbamoyl and 6-O-carbonoyl macrolide antibacterial agents” (Janssen Pharmaceutica, NV, priority 2002, dated 2004)
≈ marks a conversion by molar mass, not a printed value.

How the values were obtained:
Assay in all cases: MIC, microdilution broth method (NCCLS)
Assay type in all cases: cell-based
[1] = test system: S. aureus ATCC29213; conditions: Staphylococcus aureus, Table 1, 6-Carbamoyl-3-Acyl Macrolide Derivatives, read-out: MIC Values, B: S. aureus ATCC29213
Description: (§1) Minimal inhibitory concentration (MIC) has been an indicator of in vitro antibacterial activity widely used in the art. The in vitro antimicrobial activity of the compounds was determined by the microdilution broth method following the test method from the National Committee for Clinical Laboratory Standards (NCCLS). This method is described in the NCCLS Document M7-A4, Vol.17, No.2, “Methods for Dilution Antimicrobial Susceptibility Test for Bacteria that Grow Aerobically—Fourth Edition”, which is incorporated herein by reference.
(§2) In this method two-fold serial dilutions of drug in cation adjusted Mueller-Hinton broth are added to wells in microdilution trays. The test organisms are prepared by adjusting the turbidity of actively growing broth cultures so that the final concentration of test organism after it is added to the wells is approximately 5×10^4 CFU/well.
(§3) Following inoculation of the microdilution trays, the trays are incubated at 35 °C for 16-20 hours and then read. […] The amount of growth in the wells containing the test compound is compared with the amount of growth in the growth-control wells (no test compound) used in each tray. As set forth in Table 1, compounds of the present invention were tested against a variety of Gram positive and Gram negative pathogenic bacteria resulting in a range of activities depending on the organism tested.

[2] = test system: H. influenzae ATCC49247; conditions: Haemophilus influenzae, Table 1, 6-Carbamoyl-3-Acyl Macrolide Derivatives, read-out: MIC Values, E: H. influenzae ATCC49247
Description: as §1, §2, §3

[3] = test system: S. pneumoniae ATCC49619; conditions: Streptococcus pneumoniae, Table 1, 6-Carbamoyl-3-Acyl Macrolide Derivatives, read-out: MIC Values, D: S. pneumoniae ATCC49619
Description: as §1, §2, §3

[4] = test system: E. faecalis ATCC29212; conditions: Enterococcus faecalis, Table 1, 6-Carbamoyl-3-Acyl Macrolide Derivatives, read-out: MIC Values, C: E. faecalis ATCC29212
Description: as §1, §2, §3

[5] = test system: E. coli OC2605; conditions: Escherichia coli, Table 1, 6-Carbamoyl-3-Acyl Macrolide Derivatives, read-out: MIC Values, A: E. coli OC2605
Description: as §1, §2, §3

SMILES | MIC [1] | MIC [2] | MIC [3] | MIC [4] | MIC [5]
CC[C@H]1OC(=O)[C@H](C)[C@@H](OC(=O)c2ccccc2)[C@H](C)[C@@H](O[C@@H]2O[C@H](C)C[C@H](N(C)C)[C@H]2O)[C@](C)(OC(=O)NC/C=C/c2cccnc2)C[C@@H](C)C(=O)[C@H](C)[C@H]2NC(=O)O[C@@]21C [Compound 18] | 4 µg/mL (≈ 4.62 µM) | 8 µg/mL (≈ 9.25 µM) | 0.12 µg/mL (≈ 0.139 µM) | 0.5 µg/mL (≈ 0.578 µM) | > 16 µg/mL
CC[C@H]1OC(=O)[C@H](C)[C@@H](OC(=O)Cc2cccnc2)[C@H](C)[C@@H](O[C@@H]2O[C@H](C)C[C@H](N(C)C)[C@H]2O)[C@](C)(OC(=O)NC/C=C/c2cccnc2)C[C@@H](C)C(=O)[C@H](C)[C@H]2NC(=O)O[C@@]21C [Compound 19] | 1 µg/mL (≈ 1.14 µM) | 1 µg/mL (≈ 1.14 µM) | 0.06 µg/mL (≈ 0.0682 µM) | 0.25 µg/mL (≈ 0.284 µM) | 16 µg/mL (≈ 18.2 µM)
CC[C@H]1OC(=O)[C@H](C)[C@@H](OC(=O)Cc2ccccn2)[C@H](C)[C@@H](O[C@@H]2O[C@H](C)C[C@H](N(C)C)[C@H]2O)[C@](C)(OC(=O)NC/C=C/c2cccnc2)C[C@@H](C)C(=O)[C@H](C)[C@H]2NC(=O)O[C@@]21C [Compound 20] | 0.5 µg/mL (≈ 0.568 µM) | 1 µg/mL (≈ 1.14 µM) | 0.03 µg/mL (≈ 0.0341 µM) | 0.25 µg/mL (≈ 0.284 µM) | 8 µg/mL (≈ 9.09 µM)
CC[C@H]1OC(=O)[C@H](C)[C@@H](OC(=O)Cc2cccnc2)[C@H](C)[C@@H](O[C@@H]2O[C@H](C)C[C@H](N(C)C)[C@H]2O)[C@](C)(OC(=O)NC/C=C/c2ccccc2)C[C@@H](C)C(=O)[C@H](C)[C@H]2NC(=O)O[C@@]21C [Compound 21] | 0.5 µg/mL (≈ 0.569 µM) | 2 µg/mL (≈ 2.28 µM) | 0.06 µg/mL (≈ 0.0683 µM) | 0.25 µg/mL (≈ 0.284 µM) | 8 µg/mL (≈ 9.1 µM)
CC[C@H]1OC(=O)[C@H](C)[C@@H](OC(=O)Cc2cccnc2)[C@H](C)[C@@H](O[C@@H]2O[C@H](C)C[C@H](N(C)C)[C@H]2OC(C)=O)[C@](C)(OC(=O)NCc2cnc3ccccc3c2)C[C@@H](C)C(=O)[C@H](C)[C@H]2NC(=O)O[C@@]21C [Compound 22] | 0.5 µg/mL (≈ 0.528 µM) | 2 µg/mL (≈ 2.11 µM) | 0.03 µg/mL (≈ 0.0317 µM) | 0.25 µg/mL (≈ 0.264 µM) | 16 µg/mL (≈ 16.9 µM)
CC[C@H]1OC(=O)[C@H](C)[C@@H](OC(=O)Cc2cccnc2)[C@H](C)[C@@H](O[C@@H]2O[C@H](C)C[C@H](N(C)C)[C@H]2O)[C@](C)(OC(=O)NC/C=C/C=C/c2cccnc2)C[C@@H](C)C(=O)[C@H](C)[C@H]2NC(=O)O[C@@]21C [Compound 23] | 1 µg/mL (≈ 1.1 µM) | 4 µg/mL (≈ 4.41 µM) | 0.03 µg/mL (≈ 0.0331 µM) | 0.25 µg/mL (≈ 0.276 µM) | 16 µg/mL (≈ 17.7 µM)
CC[C@H]1OC(=O)[C@H](C)[C@@H](OC(=O)C(C)C)[C@H](C)[C@@H](O[C@@H]2O[C@H](C)C[C@H](N(C)C)[C@H]2O)[C@](C)(OC(=O)NC/C=C/C=C/c2cccnc2)C[C@@H](C)C(=O)[C@H](C)[C@H]2NC(=O)O[C@@]21C [Compound 24] | 0.5 µg/mL (≈ 0.583 µM) | 2 µg/mL (≈ 2.33 µM) | < 0.015 µg/mL | 0.25 µg/mL (≈ 0.292 µM) | > 16 µg/mL
CC[C@H]1OC(=O)[C@H](C)[C@@H](OC(=O)Cc2ccccn2)[C@H](C)[C@@H](O[C@@H]2O[C@H](C)C[C@H](N(C)C)[C@H]2O)[C@](C)(OC(=O)NC/C=C/C=C/c2cccnc2)C[C@@H](C)C(=O)[C@H](C)[C@H]2NC(=O)O[C@@]21C [Compound 25, 2-Pyridineacetic acid, (3aS,4R,7R,8S,9S,10R, 11R,13R,15R,15aR)-4-ethyltetradecahydro-3a,7,9,11,13,15-hexamethyl-2,6,14-trioxo-11-[[[[(2E,4E)-5-(3-pyridinyl)-2,4-pentadienyl]amino]carbonyl]oxy]-10-[[3,4,6-trideoxy-3-(dimethylamino)-β-D-xylo-hexopyranosyl]oxy]-2H-oxacyclotetradecino[4,3-d]oxazol-8-yl ester] | 0.5 µg/mL (≈ 0.552 µM) | 2 µg/mL (≈ 2.21 µM) | 0.03 µg/mL (≈ 0.0331 µM) | 0.25 µg/mL (≈ 0.276 µM) | 8 µg/mL (≈ 8.83 µM)
CC[C@H]1OC(=O)[C@H](C)[C@@H](OC(=O)C(C)C)[C@H](C)[C@@H](O[C@@H]2O[C@H](C)C[C@H](N(C)C)[C@H]2O)[C@](C)(OC(=O)NC/C=C/C=C/c2ccccn2)C[C@@H](C)C(=O)[C@H](C)[C@H]2NC(=O)O[C@@]21C [Compound 26] | 1 µg/mL (≈ 1.17 µM) | 2 µg/mL (≈ 2.33 µM) | 0.06 µg/mL (≈ 0.07 µM) | 0.25 µg/mL (≈ 0.292 µM) | 16 µg/mL (≈ 18.7 µM)
CC[C@H]1OC(=O)[C@H](C)[C@@H](OC(=O)Cc2cccnc2)[C@H](C)[C@@H](O[C@@H]2O[C@H](C)C[C@H](N(C)C)[C@H]2O)[C@](C)(OC(=O)NC/C=C/C=C/c2ccccn2)C[C@@H](C)C(=O)[C@H](C)[C@H]2NC(=O)O[C@@]21C [Compound 27] | 0.5 µg/mL (≈ 0.552 µM) | 1 µg/mL (≈ 1.1 µM) | 0.03 µg/mL (≈ 0.0331 µM) | 0.25 µg/mL (≈ 0.276 µM) | 8 µg/mL (≈ 8.83 µM)
CC[C@H]1OC(=O)[C@H](C)[C@@H](OC(=O)Cc2cccnc2)[C@H](C)[C@@H](O[C@@H]2O[C@H](C)C[C@H](N(C)C)[C@H]2O)[C@](C)(OC(=O)NC/C=C/c2ccc(Br)nc2)C[C@@H](C)C(=O)[C@H](C)[C@H]2NC(=O)O[C@@]21C [Compound 28] | 0.5 µg/mL (≈ 0.521 µM) | 1 µg/mL (≈ 1.04 µM) | < 0.015 µg/mL | 0.25 µg/mL (≈ 0.261 µM) | 8 µg/mL (≈ 8.34 µM)
CC[C@H]1OC(=O)[C@H](C)[C@@H](OC(=O)Cc2ccccn2)[C@H](C)[C@@H](O[C@@H]2O[C@H](C)C[C@H](N(C)C)[C@H]2O)[C@](C)(OC(=O)NC/C=C/c2ccc(C#N)nc2)C[C@@H](C)C(=O)[C@H](C)[C@H]2NC(=O)O[C@@]21C [Compound 29] | 0.5 µg/mL (≈ 0.552 µM) | 2 µg/mL (≈ 2.21 µM) | 0.03 µg/mL (≈ 0.0331 µM) | 0.25 µg/mL (≈ 0.276 µM) | 16 µg/mL (≈ 17.7 µM)
CC[C@H]1OC(=O)[C@H](C)[C@@H](OC(=O)Cc2cccnc2)[C@H](C)[C@@H](O[C@@H]2O[C@H](C)C[C@H](N(C)C)[C@H]2O)[C@](C)(OC(=O)NC/C=C/c2cnc3ccccc3c2)C[C@@H](C)C(=O)[C@H](C)[C@H]2NC(=O)O[C@@]21C [Compound 30] | 1 µg/mL (≈ 1.08 µM) | 4 µg/mL (≈ 4.3 µM) | 0.03 µg/mL (≈ 0.0323 µM) | 0.5 µg/mL (≈ 0.538 µM) | 16 µg/mL (≈ 17.2 µM)
CC[C@H]1OC(=O)[C@H](C)[C@@H](OC(=O)C(C)C)[C@H](C)[C@@H](O[C@@H]2O[C@H](C)C[C@H](N(C)C)[C@H]2O)[C@](C)(OC(=O)NC/C=C/c2cnc3ccccc3c2)C[C@@H](C)C(=O)[C@H](C)[C@H]2NC(=O)O[C@@]21C [Compound 31, Propanoic acid, 2-methyl-, (3aS,4R,7R,8S,9S,10R,11R,13R,15R,15aR)-4-ethyltetradecahydro-3a,7,9,11,13,15-hexamethyl-2,6,14-trioxo-11-[[[[(2E)-3-(3-quinolinyl)-2-propenyl]amino]carbonyl]oxy]-10-[[3,4,6-trideoxy-3-(dimethylamino)-β-D-xylo-hexopyranosyl]oxy]-2H-oxacyclotetradecino[4,3-d]oxazol-8-yl ester] | 0.5 µg/mL (≈ 0.567 µM) | 4 µg/mL (≈ 4.54 µM) | 0.03 µg/mL (≈ 0.034 µM) | 0.25 µg/mL (≈ 0.284 µM) | 8 µg/mL (≈ 9.08 µM)
CC[C@H]1OC(=O)[C@H](C)[C@@H](OC(=O)Cc2ccccn2)[C@H](C)[C@@H](O[C@@H]2O[C@H](C)C[C@H](N(C)C)[C@H]2O)[C@](C)(OC(=O)NC/C=C/c2cnc3ccccc3c2)C[C@@H](C)C(=O)[C@H](C)[C@H]2NC(=O)O[C@@]21C [Compound 32] | 0.5 µg/mL (≈ 0.538 µM) | 2 µg/mL (≈ 2.15 µM) | 0.03 µg/mL (≈ 0.0323 µM) | 0.25 µg/mL (≈ 0.269 µM) | 8 µg/mL (≈ 8.6 µM)
CC[C@H]1OC(=O)[C@H](C)[C@@H](OC(=O)C(C)C)[C@H](C)[C@@H](O[C@@H]2O[C@H](C)C[C@H](N(C)C)[C@H]2O)[C@](C)(OC(=O)NC/C=C/c2ccnc3ccccc23)C[C@@H](C)C(=O)[C@H](C)[C@H]2NC(=O)O[C@@]21C [Compound 33] | 0.5 µg/mL (≈ 0.567 µM) | 2 µg/mL (≈ 2.27 µM) | 0.03 µg/mL (≈ 0.034 µM) | 0.25 µg/mL (≈ 0.284 µM) | 16 µg/mL (≈ 18.2 µM)
CC[C@H]1OC(=O)[C@H](C)[C@@H](OC(=O)Cc2cccnc2)[C@H](C)[C@@H](O[C@@H]2O[C@H](C)C[C@H](N(C)C)[C@H]2O)[C@](C)(OC(=O)NC/C=C/c2ccnc3ccccc23)C[C@@H](C)C(=O)[C@H](C)[C@H]2NC(=O)O[C@@]21C [Compound 34] | 0.5 µg/mL (≈ 0.538 µM) | 2 µg/mL (≈ 2.15 µM) | 0.03 µg/mL (≈ 0.0323 µM) | 0.25 µg/mL (≈ 0.269 µM) | 8 µg/mL (≈ 8.6 µM)
CC[C@H]1OC(=O)[C@H](C)[C@@H](OC(=O)Cc2cccnc2)[C@H](C)[C@@H](O[C@@H]2O[C@H](C)C[C@H](N(C)C)[C@H]2O)[C@](C)(OC(=O)NC/C=C/c2ccc(C(F)(F)F)nc2)C[C@@H](C)C(=O)[C@H](C)[C@H]2NC(=O)O[C@@]21C [Compound 36] | 1 µg/mL (≈ 1.05 µM) | 4 µg/mL (≈ 4.22 µM) | 0.06 µg/mL (≈ 0.0633 µM) | 0.25 µg/mL (≈ 0.264 µM) | 16 µg/mL (≈ 16.9 µM)
CC[C@H]1OC(=O)[C@H](C)[C@@H](OC(=O)Cc2cccnc2)[C@H](C)[C@@H](O[C@@H]2O[C@H](C)C[C@H](N(C)C)[C@H]2O)[C@](C)(OC(=O)NC/C=C/c2cnc(C(F)(F)F)nc2)C[C@@H](C)C(=O)[C@H](C)[C@H]2NC(=O)O[C@@]21C [Compound 38] | 2 µg/mL (≈ 2.11 µM) | 4 µg/mL (≈ 4.21 µM) | 0.12 µg/mL (≈ 0.126 µM) | 0.5 µg/mL (≈ 0.527 µM) | > 16 µg/mL
